Source: ChEMBL document CHEMBL5543167, “Design, Synthesis, and Biological Evaluation of Novel EGFR PROTACs Targeting C797S Mutation” (J Med Chem, 2024)
Active and inactive are the calls of the source. No cut-off for these calls is given here.

How the values were obtained:
[1] = test system: Protein cereblon/Epidermal growth factor receptor (Homo sapiens), P00533+Q96SW2 [L858R,T790M,C797S]; test: PROTAC activity at CRBN/EGFR L858R/T790M/C797S mutant in human H1975-TM cells assessed as induction of EGFR degradation by measuring maximal efficacy at 300 nM incubated for 24 hrs by Western blot analysis relative to control; assay type: cell-based
[2] = Potency index, ratio of brigatinib IC50 to test compound IC50 for antiproliferative activity against human […] cells harboring EGFR L858R/T790M/C797S mutant assessed as inhibition of cell growth incubated for 72 hrs by CCK-8 assay; assay type: functional, H1975-TM
[3] = test system: Protein cereblon/Epidermal growth factor receptor (Homo sapiens), P00533+Q96SW2 [L858R,T790M,C797S]; test: PROTAC activity at CRBN/EGFR L858R/T790M/C797S mutant in human H1975-TM cells assessed as induction of EGFR degradation by measuring remaining activity at 1.2 nM incubated for 24 hrs by Western blot analysis (reference value: 100%); assay type: cell-based
[4] = test system: Protein cereblon/Epidermal growth factor receptor (Homo sapiens), P00533+Q96SW2 [L858R,T790M,C797S]; test: PROTAC activity at CRBN/EGFR L858R/T790M/C797S mutant in human H1975-TM cells assessed as induction of EGFR degradation by measuring remaining activity at 11 nM incubated for 24 hrs by Western blot analysis (reference value: 100%); assay type: cell-based
[5] = test system: Protein cereblon/Epidermal growth factor receptor (Homo sapiens), P00533+Q96SW2 [L858R,T790M,C797S]; test: PROTAC activity at CRBN/EGFR L858R/T790M/C797S mutant in human H1975-TM cells assessed as induction of EGFR degradation by measuring remaining activity at 300 nM incubated for 24 hrs by Western blot analysis (reference value: 100%); assay type: cell-based
[6] = test system: Protein cereblon/Epidermal growth factor receptor (Homo sapiens), P00533+Q96SW2 [L858R,T790M,C797S]; test: PROTAC activity at CRBN/EGFR L858R/T790M/C797S mutant in human H1975-TM cells assessed as induction of EGFR degradation by measuring remaining activity at 100 nM incubated for 6 hrs by Western blot analysis (reference value: 100%); assay type: cell-based
[7] = test system: Protein cereblon/Epidermal growth factor receptor (Homo sapiens), P00533+Q96SW2 [L858R,T790M,C797S]; test: PROTAC activity at CRBN/EGFR L858R/T790M/C797S mutant in human H1975-TM cells assessed as induction of EGFR degradation by measuring remaining activity at 100 nM preincubated for 24 hrs followed by compound washout and measured after 6 hrs by Western blot analysis (reference value: 100%); assay type: cell-based
[8] = test system: Protein cereblon/Epidermal growth factor receptor (Homo sapiens), P00533+Q96SW2 [L858R,T790M,C797S]; test: PROTAC activity at CRBN/EGFR L858R/T790M/C797S mutant in human H1975-TM cells assessed as induction of EGFR degradation by measuring remaining activity at 100 nM preincubated for 24 hrs followed by compound washout and measured after 12 hrs by Western blot analysis (reference value: 100%); assay type: cell-based
[9] = test system: Protein cereblon/Epidermal growth factor receptor (Homo sapiens), P00533+Q96SW2 [L858R,T790M,C797S]; test: PROTAC activity at CRBN/EGFR L858R/T790M/C797S mutant in human H1975-TM cells assessed as induction of EGFR degradation by measuring remaining activity at 100 nM preincubated for 24 hrs followed by compound washout and measured after 24 hrs by Western blot analysis (reference value: 100%); assay type: cell-based
[10] = test system: Protein cereblon/Epidermal growth factor receptor (Homo sapiens), P00533+Q96SW2 [L858R,T790M]; test: (§1) PROTAC activity at CRBN/EGFR L858R/T790M mutant in human NCI-H1975 cells assessed as induction of EGFR degradation incubated for 24 hrs by Western blot analysis; assay type: cell-based
[11] = biological target: Protein cereblon/Epidermal growth factor receptor (Homo sapiens, UniProt P00533+Q96SW2, T790M/L858R); test: as §1; assay type: cell-based
NCI-H1975 = test: Antiproliferative activity against human NCI-H1975 cells harboring EGFR L858R/T790M mutant assessed as inhibition of cell proliferation incubated for 72 hrs by CCK8 assay; assay type: functional, cell-based; conditions: NCI-H1975, 72 h
[12] = biological target: Cyclin-dependent kinase 12 (Homo sapiens) (UniProt Q9NYV4); test: Induction of CDK12 degradation in human H1975-TM cells at 50 nM incubated for 24 hrs; assay type: cell-based
Chain of Cyclin-dependent kinase 12 (Homo sapiens) (Q9NYV4 whole entry, looked up): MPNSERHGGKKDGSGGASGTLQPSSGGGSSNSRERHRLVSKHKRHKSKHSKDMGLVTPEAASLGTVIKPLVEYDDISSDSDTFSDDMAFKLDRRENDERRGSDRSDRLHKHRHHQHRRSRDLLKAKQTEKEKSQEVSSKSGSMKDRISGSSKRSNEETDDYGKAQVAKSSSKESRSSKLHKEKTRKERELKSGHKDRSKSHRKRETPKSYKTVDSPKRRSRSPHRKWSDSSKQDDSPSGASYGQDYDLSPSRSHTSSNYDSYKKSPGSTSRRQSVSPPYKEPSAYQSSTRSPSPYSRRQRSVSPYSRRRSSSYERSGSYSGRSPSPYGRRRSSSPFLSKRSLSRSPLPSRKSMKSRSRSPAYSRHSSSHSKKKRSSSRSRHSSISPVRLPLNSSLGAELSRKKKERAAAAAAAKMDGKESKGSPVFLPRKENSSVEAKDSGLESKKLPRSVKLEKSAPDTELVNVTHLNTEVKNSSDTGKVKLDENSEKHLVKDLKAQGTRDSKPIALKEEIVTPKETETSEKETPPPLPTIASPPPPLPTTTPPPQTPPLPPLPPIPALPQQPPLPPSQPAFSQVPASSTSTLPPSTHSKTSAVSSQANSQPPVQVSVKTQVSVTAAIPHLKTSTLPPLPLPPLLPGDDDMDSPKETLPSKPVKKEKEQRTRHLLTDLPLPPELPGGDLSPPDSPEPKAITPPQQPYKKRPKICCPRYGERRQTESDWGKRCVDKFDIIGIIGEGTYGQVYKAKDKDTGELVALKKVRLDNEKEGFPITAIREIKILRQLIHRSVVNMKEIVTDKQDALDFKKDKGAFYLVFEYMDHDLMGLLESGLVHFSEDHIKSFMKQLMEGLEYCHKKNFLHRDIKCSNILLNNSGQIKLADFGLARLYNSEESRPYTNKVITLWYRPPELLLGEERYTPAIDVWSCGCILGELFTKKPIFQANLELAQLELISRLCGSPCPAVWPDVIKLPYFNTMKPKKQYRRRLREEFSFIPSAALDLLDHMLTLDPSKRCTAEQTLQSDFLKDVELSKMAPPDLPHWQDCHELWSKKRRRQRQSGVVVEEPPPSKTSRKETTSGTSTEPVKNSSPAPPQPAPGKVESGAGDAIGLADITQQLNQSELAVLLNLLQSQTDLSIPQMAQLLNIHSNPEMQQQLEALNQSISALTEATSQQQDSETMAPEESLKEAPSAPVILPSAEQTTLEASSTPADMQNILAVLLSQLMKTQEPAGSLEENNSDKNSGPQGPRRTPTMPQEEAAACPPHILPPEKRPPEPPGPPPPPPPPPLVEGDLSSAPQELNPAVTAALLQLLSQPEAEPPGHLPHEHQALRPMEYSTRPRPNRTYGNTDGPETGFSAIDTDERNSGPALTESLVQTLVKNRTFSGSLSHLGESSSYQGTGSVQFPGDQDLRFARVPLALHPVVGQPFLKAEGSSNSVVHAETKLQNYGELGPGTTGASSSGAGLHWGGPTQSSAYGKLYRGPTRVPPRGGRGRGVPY

[13] = biological target: Cyclin-dependent kinase 16 (Homo sapiens) (UniProt Q00536); test: Induction of CDK16 degradation in human H1975-TM cells at 50 nM incubated for 24 hrs; assay type: cell-based
Chain of Cyclin-dependent kinase 16 (Homo sapiens) (Q00536 whole entry): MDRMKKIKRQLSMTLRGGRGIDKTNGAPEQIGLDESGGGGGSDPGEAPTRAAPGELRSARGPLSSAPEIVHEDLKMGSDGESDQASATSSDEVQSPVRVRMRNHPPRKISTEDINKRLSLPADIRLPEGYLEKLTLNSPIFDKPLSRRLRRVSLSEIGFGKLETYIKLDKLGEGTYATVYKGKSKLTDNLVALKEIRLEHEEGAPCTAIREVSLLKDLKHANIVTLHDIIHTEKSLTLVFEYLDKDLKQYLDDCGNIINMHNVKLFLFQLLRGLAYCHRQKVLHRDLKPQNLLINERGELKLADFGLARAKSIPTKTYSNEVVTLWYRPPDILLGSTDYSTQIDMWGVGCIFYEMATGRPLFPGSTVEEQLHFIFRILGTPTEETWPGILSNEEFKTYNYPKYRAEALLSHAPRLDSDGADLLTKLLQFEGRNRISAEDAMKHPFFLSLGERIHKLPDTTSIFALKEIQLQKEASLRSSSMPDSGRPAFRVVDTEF

[14] = biological target: Probable U3 small nucleolar RNA-associated protein 11 (Homo sapiens) (UniProt Q9Y3A2); test: Induction of UTP11 degradation in human H1975-TM cells at 50 nM incubated for 24 hrs; assay type: cell-based
Chain of Probable U3 small nucleolar RNA-associated protein 11 (Homo sapiens) (Q9Y3A2 whole entry): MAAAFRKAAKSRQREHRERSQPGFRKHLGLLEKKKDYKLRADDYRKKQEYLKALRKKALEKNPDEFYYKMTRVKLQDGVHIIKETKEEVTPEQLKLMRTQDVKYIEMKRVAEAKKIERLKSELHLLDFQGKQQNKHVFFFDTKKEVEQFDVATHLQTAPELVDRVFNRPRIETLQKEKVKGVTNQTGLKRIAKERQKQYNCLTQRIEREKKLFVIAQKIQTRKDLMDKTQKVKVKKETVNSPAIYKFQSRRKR

[15] = biological target: Sodium-coupled neutral amino acid symporter 2 (Homo sapiens) (UniProt Q96QD8); test: Induction of SLC38A2 degradation in human H1975-TM cells at 50 nM incubated for 24 hrs; assay type: cell-based
Chain of Sodium-coupled neutral amino acid symporter 2 (Homo sapiens) (Q96QD8 whole entry): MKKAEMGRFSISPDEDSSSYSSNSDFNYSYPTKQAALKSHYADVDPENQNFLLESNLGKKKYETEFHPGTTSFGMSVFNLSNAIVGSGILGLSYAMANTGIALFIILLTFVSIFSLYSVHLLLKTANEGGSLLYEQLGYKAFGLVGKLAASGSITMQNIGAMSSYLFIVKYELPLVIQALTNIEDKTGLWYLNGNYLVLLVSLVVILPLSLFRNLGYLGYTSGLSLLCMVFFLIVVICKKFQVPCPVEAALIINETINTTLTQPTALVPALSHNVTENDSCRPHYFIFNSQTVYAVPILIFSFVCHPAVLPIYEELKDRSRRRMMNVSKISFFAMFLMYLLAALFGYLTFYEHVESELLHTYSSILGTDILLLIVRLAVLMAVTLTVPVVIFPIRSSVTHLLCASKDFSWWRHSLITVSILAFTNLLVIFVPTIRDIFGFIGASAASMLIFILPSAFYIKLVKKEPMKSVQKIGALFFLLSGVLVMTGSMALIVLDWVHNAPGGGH

[16] = biological target: Hepatocyte growth factor receptor (Homo sapiens) (UniProt P08581); test: Induction of MET degradation in human H1975-TM cells at 50 nM incubated for 24 hrs; assay type: cell-based
Chain of Hepatocyte growth factor receptor (Homo sapiens) (P08581 whole entry): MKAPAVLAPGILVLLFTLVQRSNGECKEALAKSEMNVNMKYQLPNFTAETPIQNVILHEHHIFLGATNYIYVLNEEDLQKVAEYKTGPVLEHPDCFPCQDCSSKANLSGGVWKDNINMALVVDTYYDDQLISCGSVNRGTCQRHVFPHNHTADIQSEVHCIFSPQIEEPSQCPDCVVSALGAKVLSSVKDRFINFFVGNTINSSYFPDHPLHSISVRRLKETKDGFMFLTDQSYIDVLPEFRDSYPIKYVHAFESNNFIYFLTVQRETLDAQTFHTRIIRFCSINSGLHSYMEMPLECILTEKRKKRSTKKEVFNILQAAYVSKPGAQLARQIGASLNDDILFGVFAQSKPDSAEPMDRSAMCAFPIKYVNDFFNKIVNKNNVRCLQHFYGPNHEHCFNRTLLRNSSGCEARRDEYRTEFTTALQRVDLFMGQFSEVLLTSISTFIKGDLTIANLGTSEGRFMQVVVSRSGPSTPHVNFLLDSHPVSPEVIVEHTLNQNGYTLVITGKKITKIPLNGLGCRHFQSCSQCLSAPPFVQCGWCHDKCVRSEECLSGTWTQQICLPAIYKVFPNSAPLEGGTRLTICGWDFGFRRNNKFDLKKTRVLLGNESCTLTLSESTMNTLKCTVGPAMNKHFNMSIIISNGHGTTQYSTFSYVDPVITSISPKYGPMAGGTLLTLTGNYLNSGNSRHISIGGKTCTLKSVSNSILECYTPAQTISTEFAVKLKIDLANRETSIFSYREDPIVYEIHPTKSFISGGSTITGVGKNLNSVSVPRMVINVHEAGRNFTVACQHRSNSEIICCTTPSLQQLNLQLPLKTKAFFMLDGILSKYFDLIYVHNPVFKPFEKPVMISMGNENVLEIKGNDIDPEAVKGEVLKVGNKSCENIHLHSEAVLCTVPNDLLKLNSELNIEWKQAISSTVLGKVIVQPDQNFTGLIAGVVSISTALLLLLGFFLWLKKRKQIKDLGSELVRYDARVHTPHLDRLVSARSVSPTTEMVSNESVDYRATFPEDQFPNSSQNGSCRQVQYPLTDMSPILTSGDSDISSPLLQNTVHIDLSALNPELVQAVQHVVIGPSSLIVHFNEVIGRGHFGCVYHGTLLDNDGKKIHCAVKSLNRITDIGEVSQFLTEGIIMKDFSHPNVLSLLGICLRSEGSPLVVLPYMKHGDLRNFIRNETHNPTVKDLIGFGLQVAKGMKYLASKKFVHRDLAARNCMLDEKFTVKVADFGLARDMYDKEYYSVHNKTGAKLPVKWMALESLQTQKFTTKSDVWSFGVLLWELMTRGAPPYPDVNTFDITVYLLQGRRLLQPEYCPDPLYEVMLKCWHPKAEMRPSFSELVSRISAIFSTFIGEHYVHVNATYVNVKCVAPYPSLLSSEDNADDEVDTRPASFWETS

[17] = Inhibition of colony formation in human H1975-TM cells harboring EGFR L858R/T790M/C797S mutant at 33 nM incubated for 14 days by crystal violet staining based analysis relative to control; assay type: functional; conditions: 336 h, time 14 day
H1975-TM [18] = test: Induction of apoptosis in human H1975-TM cells harboring EGFR L858R/T790M/C797S mutant incubated for 24 hrs by Annexin V-FITC/PI staining based flow cytometric analysis; assay type: functional, cell-based; conditions: dose 33-100 nM
[19] = biological target: Epidermal growth factor receptor (Homo sapiens) (UniProt P00533); test: Inhibition of EGFR signaling in human H1975-TM cells harboring EGFR L858R/T790M/C797S mutant assessed as reduction in ERK activation by Western blot analysis; assay type: cell-based; conditions: dose 1.2-300 nM
[20] = Antitumor activity against human H1975-TM cells xenografted in BALB/c nude mouse assessed as tumor growth inhibition at 25 mg/kg, po administered once daily for 31 days relative to control; assay type: functional; conditions: 744 h, time 31 day, read-out: TGI
H1975-TM [21] = test: Antitumor activity against human H1975-TM cells xenografted in BALB/c nude mouse assessed as increase in tumor necrosis at 25 to 100 mg/kg, po administered once daily for 31 days by H&E staining based light microscopic analysis; assay type: functional, organism-based; conditions: dose 25-100 mg/kg, time 31.0 day
[22] = Toxicity in BALB/c nude mouse xenografted with human H1975-TM cells assessed as effect on body weight at 25 to 100 mg/kg, po administered once daily for 31 days; assay type: organism-based; conditions: in vivo, 744 h, dose 25-100 mg/kg, time 31 day
[23] = Cmax in male Sprague-Dawley rat at 5 mg/kg, iv measured after 24 hrs by LC-MS/MS analysis; assay type: ADME, organism-based; conditions: in vivo
[24] = MRT (0 to infinity) in male Sprague-Dawley rat at 5 mg/kg, iv measured after 24 hrs by LC-MS/MS analysis; assay type: ADME, organism-based; conditions: in vivo
[25] = Tmax in male Sprague-Dawley rat at 5 mg/kg, iv measured after 24 hrs by LC-MS/MS analysis; assay type: ADME, organism-based; conditions: in vivo
[26] = Cmax in male Sprague-Dawley rat at 50 mg/kg, po measured after 24 hrs by LC-MS/MS analysis; assay type: ADME, organism-based; conditions: in vivo
[27] = Tmax in male Sprague-Dawley rat at 50 mg/kg, po measured after 24 hrs by LC-MS/MS analysis; assay type: ADME, organism-based; conditions: in vivo
[28] = Half-life in male Sprague-Dawley rat at 50 mg/kg, po measured after 24 hrs by LC-MS/MS analysis; assay type: ADME, organism-based; conditions: in vivo

For `CCS(=O)(=O)n1cc(-c2nc(Nc3ccc(N4CCN(CCCCCCC(=O)Nc5cccc6c5CN(C5CCC(=O)NC5=O)C6=O)CC4)cc3)ncc2C(F)(F)F)c2ccccc21` (centres undefined), the Emax [1] was > 95%, the “Ratio IC50” value [2] was 55 and the Activity [3] was 107%. The Activity [4] was 33.5%, the Activity [5] was 0.1% and the Activity [6] was 65.9%. The Activity [7] was 36.1%, the Activity [8] was 49.7% and the Activity [9] was 52.9%. For the same molecule, the Activity [10] was “Dose-Dependent Effect”, the DC50 [11] was 88.5 nM and the IC50 (NCI-H1975) was 46.2 nM. For the same molecule, the Activity [12] was “Active”, the Activity [13] was “Active” and the Activity [14] was “Active”. The Activity [15] was “Active”, the Activity [16] was “Active” and the inhibition at 0.033 µM [17] was ~100%. For the same molecule, the Activity (H1975-TM [18]) was “Dose-Dependent Effect”, the inhibition [19] was “Dose-Dependent Effect” and the inhibition in vivo at 25 mg/kg [20] was 48.1%. For the same molecule, the Activity (H1975-TM [21]) was “Active”, the Activity [22] was “Non-Toxic” and the Cmax [23] was 4600 ng/mL. The MRT inf [24] was 18.4 h, the Tmax [25] was 4.8 min and the Cmax [26] was 57.8 ng/mL. The Tmax [27] was 5.7 h and the half-life [28] was 10.9 h.
